Consider 6 molecules from ChEMBL document CHEMBL1641532, “Thiophene and bioisostere derivatives as new MMP12 inhibitors” (Bioorg Med Chem Lett, 2011).

Usually IC50 stands for the concentration that gives 50% inhibition. Higher therefore signals a need for much substance.

Structures are written as SMILES.

The target of this assay is Macrophage metalloelastase (Homo sapiens, UniProt P39900). Kind of assay: Inhibition of MMP-12 catalytic domain.
Sequence of Macrophage metalloelastase (P39900 whole entry, the tested form may be a part): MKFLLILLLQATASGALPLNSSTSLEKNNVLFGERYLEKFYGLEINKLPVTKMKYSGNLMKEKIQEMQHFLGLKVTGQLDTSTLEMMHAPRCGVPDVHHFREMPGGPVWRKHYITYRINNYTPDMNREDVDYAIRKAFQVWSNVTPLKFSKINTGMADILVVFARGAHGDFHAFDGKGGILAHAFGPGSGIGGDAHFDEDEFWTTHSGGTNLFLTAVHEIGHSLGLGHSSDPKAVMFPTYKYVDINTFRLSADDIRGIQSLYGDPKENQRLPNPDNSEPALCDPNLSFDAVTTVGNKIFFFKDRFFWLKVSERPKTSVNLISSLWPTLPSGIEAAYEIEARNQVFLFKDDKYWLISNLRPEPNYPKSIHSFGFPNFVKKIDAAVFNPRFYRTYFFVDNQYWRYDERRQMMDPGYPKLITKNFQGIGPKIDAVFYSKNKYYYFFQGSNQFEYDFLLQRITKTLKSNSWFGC
In turn, `O=C(O)C[C@@H](NC(=O)c1cc(-c2ccc(-c3ccncc3)cc2)c(F)s1)c1ccccc1` came in with an IC50 of 13 nM.

For `O=C(NC[C@H]1CC[C@H](C(=O)O)CC1)c1cc(-c2ccc(OC(F)(F)F)cc2)cs1`, the IC50 amounted to 400 nM.

On to `O=C(NC[C@H]1CC[C@H](C(=O)O)CC1)c1cc(-c2ccc(OC(F)(F)F)cc2)ns1`, for which half-maximal inhibition (IC50) required 3600 nM. Molecule `O=C(O)C[C@@H](NC(=O)c1cc(-c2ccc(OC(F)(F)F)cc2)c(F)s1)c1ccccc1` gave a 50% inhibitory concentration (IC50) of 200 nM. This IC50 is about 18-fold lower than that of the molecule before. For `O=C(NC[C@H]1CC[C@H](C(=O)O)CC1)c1cc(-c2ccc(OC(F)(F)F)cc2)sn1` the value was 31000 nM.

`NC(=O)C[C@@H](NC(=O)c1cc(-c2ccc(OC(F)(F)F)cc2)c(F)s1)c1ccccc1` had an IC50 of 85 nM.
